Results: patent US20240254140A1, “COMPOUNDS AND THEIR USE IN THE TREATMENT OF BACTERIAL INFECTION” (Hoffmann-La Roche Inc., priority 2021, published 2024)
Converted amounts (≈) assume the structure as drawn.

System: Escherichia coli ATCC 25922
Experiment: Minimal Inhibitory Concentration (MIC) determination, broth microdilution
Type: cell-based
Details: ATCC25922; strain Escherichia coli ATCC 25922; broth microdilution per CLSI M07-A10; 18-24 hours at 35±2° C.; lowest concentration for complete growth inhibition
In short: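 Broth microdilution followed CLSI M07-A10, with 2-fold compound dilutions and an inoculum from a 0.5 McFarland suspension diluted 1:200 in broth. Plates were incubated 18–24 h at 35±2° C in ambient air. MIC (μg/mL) was the lowest concentration giving no visible growth.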

SMILES	MIC [µg/mL]
N[C@@H](CC(=O)O)C(=O)Nc1cc(F)c2c(c1)CC(CNCCC1CN(c3cnc4c(n3)NC(=O)CO4)C(=O)O1)C2.O=C(O)C(F)(F)F (stereo partly drawn) [Example 48, (3S)-3-amino-4-[[7-fluoro-2-[[2-[2-oxo-3-(3-oxo-4H-pyrazino[2,3-b][1,4]oxazin-6-yl)oxazolidin-5-yl]ethylamino]methyl]indan-5-yl]amino]-4-oxo-butanoic acid; 2,2,2-trifluoroacetic acid]	4
CN(C)C(C)(C)C(=O)Nc1cc(F)c2c(c1)CC(CNCCC1CN(c3cnc4c(n3)NC(=O)CO4)C(=O)O1)C2 (centres unmarked) [Example 3]	0.25 (≈ 0.45 µM)
